Measurements taken from patent US11364227B2 (priority 2020, dated 2022).

Experiments:
[1] = tested on: human bronchial epithelial cells (HBEC); settings: highest concentration tested, 11.25 μg/ml
[2] = Physical description of opaganib drug substance (solubility, hygroscopicity); type: physicochemical
[3] = tested on: COVID-19 infection (SARS-CoV-2); experiment: Pilot / compassionate use study of opaganib in patients hospitalized with COVID-19 pneumonia; type: in vivo, human
Description: Patients entered a screening period of up to 1 week. Eligible patients entered the treatment period for up to 2 weeks. All participants were followed for 2 weeks after their last dose of study drug, at the end of the 2 week treatment period, or once they had 2 consecutive daily negative viral swabs for the COVID-19 virus or at after premature drug discontinuation prior to Day 14. The maximum duration of study participation was 35 days […].
Each dose is administered with food or 15-30 minutes after tube-feeding, where appropriate. […] These patients had moderate to severe COVID-19-related pneumonia with hypoxia on supplemental oxygen.
Five patients were included in the analysis, and for comparison purposes, we used a control group with same-sex, same-severity patients (baseline characteristics). Univariate comparisons between the groups were performed with chi-square test for categorical variables and t-test or MannWhitney U-test for continuous variables, as appropriate. Time variables were compared with Cox proportional hazard regression, adjusted for age and background illnesses. CRP and lymphocyte changes were compared utilizing a repeated measures general linear model with a Bonferroni correction for multiple comparison.

[4] = tested on: SARS-CoV-2 clinical isolate (2019-nCoV/USA-WA1/2020); experiment: Anti-viral activity against SARS-CoV-2 in human bronchial epithelial cell (HBEC, EpiAirway) air-liquid-interface cultures, viral titer by TCID50; type: cell-based
[5] = tested on: COVID-19 pneumonia (SARS-CoV-2); experiment: Randomized, double-blind, placebo-controlled Phase 2a study of opaganib in COVID-19 pneumonia; type: in vivo, human
Source text: This was a phase 2a, proof of concept, multi-center randomized double-blind, parallel arm, placebo-controlled study. After informed consent was obtained, patients entered a screening phase for no more than 3 days, to determine eligibility. […] Treatment assignments remained blinded to the patient, investigator and hospital staff, as well as the sponsor. As there was no consensus for a definitive treatment specifically targeting the SARS-CoV-2 virus causing COVID-19 (Wilson, 2020), standard of care referred to regional, institutional or physician directed therapies, that were implemented during the COVID-19 pandemic.
Study drug was to be administered every day for 14 days (Day 1 to Day 14), unless the patient had been discharged from the hospital without requiring supplemental oxygen, in which case study drug would only be administered to Day 10.
Two patients were randomized in each group but not treated. […] Two patients in the opaganib arm experienced adverse events such that study drug was terminated, while one placebo patient was terminated due to an adverse event.
The primary efficacy endpoint calculated for each patient the area under the curve of the supplemental oxygen requirement through day 14, using the trapezoidal rule after subtracting the baseline oxygen requirement at each day. Days where no supplementary oxygen was needed, were recorded as 0. If several values of oxygen requirement (L/min) are recorded in a certain day, for the primary analysis the highest of these values were taken. In the primary analysis, for patients who die before Day 14, or require intubation and mechanical ventilation, missing daily values were assigned the maximal supplemental oxygen flow requirement of 8 L/min. For patients discharged from hospital on supplemental oxygen prior to Day 14, if no values were collected by the site after discharge, the oxygen requirement (L/min) on the day of discharge were to be assigned thereafter for each day to Day 14.
Supplemental oxygen requirement up to Day 14 was collected even if a patient discontinued treatment prior to Day 14 but continued in the study to Day 14. Further, it was assumed that loss to follow up such that vital status up to Day 14 were missing is unlikely. Therefore, the primary analysis assumed that in case that all supplemental oxygen values are missing after treatment discontinuation, the last value is carried forward—until Day 14, or death, if occurred before. A sensitivity analysis to the above missing data handling approach was performed using an AUC summary statistics approach, in which groups AUC is calculated from the estimated parameters of a Repeated-Measures model.
Within the mITT cohort, two subjects withdrew their consent due to grade 1 gastrointestinal AEs.

ARDS induced thrombosis = experiment: Rat venous stasis (Wessler) model after LPS-induced lung injury (ARDS induced thrombosis); type: in vivo, Sprague-Dawley rats; settings: 250 mg/kg oral gavage 3, 24, 48, 72 h post LPS instillation; rat venous stasis 30 min
Source text: This study assessed the efficacy of ABC294640 to reduce the incidence of adverse thromboembolic events in situ in acute respiratory distress syndrome (ARDS) conditions using a rat venous stasis model. This assay is designed to measure thrombotic risks following LPS-induced lung injury. LPS-induced lung injury is one of the most commonly used rodent models for ARDS and was described to mimic the neutrophilic inflammatory response observed in ARDS patients. The mechanism of LPS-induced ARDS is based on damage to endothelial cells and a systemic inflammatory response. […]
Sprague-Dawley rats (male) weighing between 275 and 400 g were used for this study. […] The body weight was recorded before the instillation and 24, 48 and 72 hours post-instillation.
In this study, ARDS was induced by intratracheal instillation of LPS. […] The segment was then excised and its content scored. […]
• 1. Prior LPS or saline instillation, the functional respiratory parameters of all rat was assessed by whole-body plethysmography and SpO2 was evaluated on conscious rat with a collar probe pulse oximeter. […] The respiratory rate, the Penh and the inspiratory/expiratory time measurements was analyzed. • 2. […]
• 5. Rats were evaluated periodically to ensure animal well-being (general behavior and daily body weight). • 6. […] SpO2 and whole-body plethysmography were also evaluated 24, 48 and 72 hours post-instillation. • 8. […]

[6] = of 6 moderate-to-severe patients treated, opaganib plus standard-of-care

## Cl.O=C(NCc1ccncc1)C12CC3CC(C1)CC(c1ccc(Cl)cc1)(C3)C2 [opaganib, 3-(4-chlorophenyl)-adamantane-1-carboxylic acid (pyridin-4-ylmethyl) amide, hydrochloride salt]
[1]
  cell viability: remained viable
[2]
  solubility in water and ethyl acetate: practically insoluble
[2]; solid
  hygroscopicity: non-hygroscopic
[3]; Cox regression, 95% CI: 0.07-1.7, p=0.2
  HR for time to weaning from HFNC, cases vs. controls: 0.3
[3]; Cox regression, 95% CI: 0.15-1.5
  HR for time to ambient air, cases vs. controls: 0.4
[3]; Patient 1 (14 d), started as severe on maximal OptiFlow Apr. 3, 2020, RA = room air
  Clinical Assessment: Apr. 3, 2020; RA by 16/4. As of 22/4, one negative
[3]; Patient 1 (14 d on opaganib), baseline 1.6, Apr. 17, 2020
  Lymphocytes, most recent: 2.8 (Apr. 17, 2020) 10^3/mm^3
[3]; Patient 1 (14 d on opaganib), baseline 15.1, Apr. 17, 2020
  CRP, most recent: 1 (Apr. 17, 2020) mg/L
[3]; Patient 2 (14 d), started as severe+, planning for intubation Apr. 7, 2020, RA = room air, D/C = discharged
  Clinical Assessment: Apr. 7, 2020; RA by Apr. 20, 2020, D/C on Apr. 22, 2020
[3]; Patient 2 (14 d on opaganib), baseline 1.1, Apr. 17, 2020
  Lymphocytes, most recent: 2.1 (Apr. 17, 2020) 10^3/mm^3
[3]; Patient 2 (14 d on opaganib), baseline 14.2, Apr. 17, 2020
  CRP, most recent: 4.8 (Apr. 17, 2020) mg/L
[3]; Patient 3 (7 d), moderate-severe, on OptiFlow Apr. 13, 2020, D/C = discharged
  Clinical Assessment: Apr. 7, 200, D/C on Apr. 19, 2020
[3]; Patient 3 (7 d on opaganib), baseline 0.9, Apr. 17, 2020
  Lymphocytes, most recent: 1.2 (Apr. 17, 2020) 10^3/mm^3
[3]; Patient 3 (7 d on opaganib), baseline 10.7, Apr. 17, 2020
  CRP, most recent: 1.7 (Apr. 17, 2020) mg/L
[3]; Patient 4 (11 d), started severe+ 70% OptiFlow on Apr. 13, 2020, RA = room air
  Clinical Assessment: RA on Apr. 22, 2020
[3]; Patient 4 (11 d on opaganib), baseline 1.2, Apr. 22, 2020
  Lymphocytes, most recent: 1 (Apr. 22, 2020) 10^3/mm^3
[3]; Patient 4 (11 d on opaganib), baseline 24.8, Apr. 22, 2020
  CRP, most recent: 17.4 (Apr. 22, 2020) mg/L
[3]; Patient 5 (2 d), started moderate on Apr. 13, 2020, nasal cannula, D/C = discharged, RA = room air
  Clinical Assessment: opaganib; D/C on Apr. 14, 2020 on RA
[3]; Patient 6 (5 d on opaganib), baseline 1.35, Apr. 24, 2020
  Lymphocytes, most recent: 1.96 (Apr. 24, 2020) 10^3/mm^3
[3]; Patient 6 (5 d on opaganib), baseline 12.2, Apr. 24, 2020
  CRP, most recent: 6.8 (Apr. 24, 2020) mg/L
[3]; Patient 7, also on HCQ and azithromycin, may or may not be related to opaganib, all 3 meds stopped
  adverse event leading to discontinuation: Diarrhea the next day, all 3 meds were stopped, followed by worsening SOB, on 75% OptiFlow.
[3]; all 6 moderate to-severe patients (patient #7 excepted)
  clinical improvement: improved significantly
[3]; all six patients
  C-Reactive Protein (CRP) change: reduction in C-Reactive Protein (CRP)
[3]; cases, controls 14.5 days
  time to ambient air: 13 days
[3]; cases, controls 15 days, p=0.2
  median time to weaning from high-flow nasal cannula (HFNC): 10 days
[3]; compared with 33% of controls
  cases requiring mechanical ventilation: none of the cases required mechanical ventilation
[3]; five patients analysed vs same-sex, same-severity controls
  increase in lymphocyte count vs matched control group: significantly faster increase in lymphocyte count
[3]; [6]
  number of patients back to breathing room air: 5 patients
  number of patients discharged from hospital: 3 patients
[3]; small cohort of severe COVID-19 patients
  safety and tolerability: safe and well tolerated
[4]; SARS-CoV-2-infected HBEC, 3 days incubation
  concentration at which complete inhibition of infectious virus production starts: 1 µg/mL
[4]; SARS-CoV-2-infected HBEC, 3 days incubation, 0.05 to 11.25 μg/ml
  infectious virus production: dose-dependent reduction
[4]; Severe acute respiratory syndrome coronavirus 2, Epithelial cell, read-out: inhibition of infectious virus production
  inhibition at 0.05 µg/mL: > 90%
[5]; opaganib 500 mg Q12 h + standard of care, control arm 22.2%
  proportion of patients reaching room air and no longer requiring oxygen support by Day 14: 52.6%
[5]; opaganib 500 mg Q12 h + standard of care, control arm 46.7%
  reduction from baseline of the medial total oxygen requirement (AUC) over 14 days: 68.0%
[5]; opaganib 500 mg Q12 h + standard of care, control arm 55.6%
  proportion of patients discharged by Day 14: 73.7%
[5]; opaganib 500 mg Q12 h + standard of care, control arm 66.7%
  proportion of patients with 50% reduction in supplemental oxygen by day 14: 89.5%
[5]; opaganib arm, one in placebo arm
  patients with adverse events such that study drug was terminated: Two
[5]; opaganib treatment arm compared with placebo arm
  patients with serious adverse events (SAEs) vs placebo arm: fewer patients suffered from serious adverse events
[5]; vs placebo arm
  safety (top-line): safe, with no material safety differences

## O=C(NCc1ccncc1)C12CC3CC(C1)CC(c1ccc(Cl)cc1)(C3)C2 [ABC294640, 3-(4-chlorophenyl)-adamantane-1-carboxylic acid (pyridin-4-ylmethyl)amide]
ARDS induced thrombosis
  thrombosis (blood clot length, weight and total thrombus score): reduction of thrombosis
